ChEMBL document CHEMBL1201862, “PubChem BioAssay data set” (2004)
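Assay format: 96-well plates, 48-hour exposure. The concentration for 50% growth inhibition is given as GI50.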 Activity calls are given as the source filed them. Rule as the data show it: active = GI50 up to about 1.1 µM and inactive = higher.

How the values were obtained:
Assay in all cases: NCI tumour cell line growth inhibition, 48 h
SR = test system: SR
A498 = test system: A498
UACC-257 = test system: UACC-257
SNB-19 = test system: SNB-19
OVCAR-5 = test system: OVCAR-5
NCI-H460 = test system: NCI-H460
786-0 = test system: 786-0
SNB-78 = test system: SNB-78
OVCAR-3 = test system: OVCAR-3
LOX IMVI = test system: LOX IMVI
M14 = test system: M14
IGROV-1 = test system: IGROV-1
SF-268 = test system: SF-268
MOLT-4 = test system: MOLT-4
OVCAR-4 = test system: OVCAR-4
HCC 2998 = test system: HCC 2998
K562 = test system: K562
UACC-62 = test system: UACC-62
NCI-H522 = test system: NCI-H522
KM-20L2 = test system: KM-20L2
SK-MEL-28 = test system: SK-MEL-28
XF498 = test system: XF498
SN12C = test system: SN12C
SF-295 = test system: SF-295
HCT-15 = test system: HCT-15
TK-10 = test system: TK-10
HOP-62 = test system: HOP-62
A549 = test system: A549
DMS-273 = test system: DMS-273
HT-29 = test system: HT-29
RPMI-8226 = test system: RPMI-8226
SK-MEL-5 = test system: SK-MEL-5
LXFL 529 = test system: LXFL 529
Malme-3M = test system: Malme-3M
SW-620 = test system: SW-620
DMS-114 = test system: DMS-114
HCT-116 = test system: HCT-116
SK-OV-3 = test system: SK-OV-3
EKVX = test system: EKVX
NCI-H23 = test system: NCI-H23
HOP-92 = test system: HOP-92
OVCAR-8 = test system: OVCAR-8
RXF 393 = test system: RXF 393
UO-31 = test system: UO-31
SNB-75 = test system: SNB-75
CCRF-CEM = test system: CCRF-CEM
COLO 205 = test system: COLO 205
CAKI-1 = test system: CAKI-1
KM12 = test system: KM12
DLD-1 = test system: DLD-1
HL-60 = test system: HL-60
ACHN = test system: ACHN
SF-539 = test system: SF-539
U-251 = test system: U-251
SK-MEL-2 = test system: SK-MEL-2
NCI-H226 = test system: NCI-H226
M19-MEL = test system: M19-MEL

COc1cc(C=O)c(-c2cc3c(cc2C2(C)OCCS2)OCO3)c(OC)c1OC (stereo unspecified)
GI50 (SR): 14.1 µM (inactive) | GI50 (A498): 7.85 µM (inactive) | GI50 (UACC-257): 8.83 µM (inactive) | GI50 (SNB-19): 30.2 µM (inactive) | GI50 (OVCAR-5): 50 µM (inactive) | GI50 (NCI-H460): 18.9 µM (inactive) | GI50 (786-0): 7.4 µM (inactive) | GI50 (SNB-78): 8.65 µM (inactive) | GI50 (OVCAR-3): 5.14 µM (inactive) | GI50 (LOX IMVI): 9.12 µM (inactive) | GI50 (M14): 5.73 µM (inactive) | GI50 (IGROV-1): 28.2 µM (inactive) | GI50 (SF-268): 36.5 µM (inactive) | GI50 (MOLT-4): 12.5 µM (inactive) | GI50 (OVCAR-4): 17.9 µM (inactive) | GI50 (HCC 2998): 16.4 µM (inactive) | GI50 (K562): 8.83 µM (inactive) | GI50 (UACC-62): 12.6 µM (inactive) | GI50 (NCI-H522): 6.08 µM (inactive) | GI50 (KM-20L2): 4.08 µM (inactive) | GI50 (SK-MEL-28): 4.4 µM (inactive) | GI50 (XF498): 9.66 µM (inactive) | GI50 (SN12C): 13.5 µM (inactive) | GI50 (SF-295): 13.3 µM (inactive) | GI50 (HCT-15): 8.22 µM | GI50 (TK-10): 57.8 µM (inactive) | GI50 (HOP-62): 15.5 µM (inactive) | GI50 (A549): 8.71 µM (inactive) | GI50 (DMS-273): 10.3 µM (inactive) | GI50 (HT-29): 6.68 µM (inactive) | GI50 (RPMI-8226): 11.4 µM (inactive) | GI50 (SK-MEL-5): 9.14 µM (inactive) | GI50 (LXFL 529): 17.6 µM (inactive) | GI50 (Malme-3M): 12 µM (inactive) | GI50 (SW-620): 7.94 µM (inactive) | GI50 (DMS-114): 17.5 µM (inactive) | GI50 (HCT-116): 8 µM (inactive) | GI50 (SK-OV-3): 13.6 µM (inactive) | GI50 (EKVX): 19.7 µM (inactive) | GI50 (NCI-H23): 21.9 µM (inactive) | GI50 (HOP-92): 14.8 µM (inactive) | GI50 (OVCAR-8): 19.1 µM (inactive) | GI50 (RXF 393): 7.38 µM (inactive) | GI50 (UO-31): 14.1 µM (inactive) | GI50 (SNB-75): 7.89 µM (inactive) | GI50 (CCRF-CEM): 7.59 µM (inactive) | GI50 (COLO 205): 4.24 µM (inactive) | GI50 (CAKI-1): 11.6 µM (inactive) | GI50 (KM12): 9.53 µM (inactive) | GI50 (DLD-1): 16.7 µM (inactive) | GI50 (HL-60): 8.07 µM (inactive) | GI50 (ACHN): 18.5 µM (inactive) | GI50 (SF-539): 5.85 µM (inactive) | GI50 (U-251): 15.5 µM (inactive) | GI50 (SK-MEL-2): 11.4 µM (inactive) | GI50 (NCI-H226): 6.32 µM (inactive)

O=C1C2C(C(=O)N1O)N(Cc1ccccc1)C(=O)N2Cc1ccccc1 (stereo unspecified)
GI50 (SR): > 100 µM (inactive) | GI50 (A498): > 100 µM (inactive) | GI50 (UACC-257): > 100 µM (inactive) | GI50 (SNB-19): > 100 µM (inactive) | GI50 (OVCAR-5): > 100 µM (inactive) | GI50 (NCI-H460): > 100 µM (inactive) | GI50 (786-0): > 100 µM (inactive) | GI50 (SNB-78): > 100 µM (inactive) | GI50 (OVCAR-3): > 100 µM (inactive) | GI50 (LOX IMVI): > 100 µM (inactive) | GI50 (M14): > 100 µM (inactive) | GI50 (IGROV-1): > 100 µM (inactive) | GI50 (SF-268): > 100 µM (inactive) | GI50 (MOLT-4): > 100 µM (inactive) | GI50 (OVCAR-4): > 100 µM (inactive) | GI50 (HCC 2998): > 100 µM (inactive) | GI50 (K562): > 100 µM (inactive) | GI50 (UACC-62): > 100 µM (inactive) | GI50 (NCI-H522): > 100 µM (inactive) | GI50 (KM-20L2): > 100 µM (inactive) | GI50 (SK-MEL-28): > 100 µM (inactive) | GI50 (XF498): > 100 µM (inactive) | GI50 (SN12C): > 100 µM (inactive) | GI50 (SF-295): > 100 µM (inactive) | GI50 (HCT-15): > 100 µM | GI50 (TK-10): > 100 µM (inactive) | GI50 (HOP-62): > 100 µM (inactive) | GI50 (A549): > 100 µM (inactive) | GI50 (HT-29): > 100 µM (inactive) | GI50 (RPMI-8226): > 100 µM (inactive) | GI50 (SK-MEL-5): > 100 µM (inactive) | GI50 (LXFL 529): > 100 µM (inactive) | GI50 (Malme-3M): > 100 µM (inactive) | GI50 (SW-620): > 100 µM (inactive) | GI50 (DMS-114): > 100 µM (inactive) | GI50 (HCT-116): > 100 µM (inactive) | GI50 (SK-OV-3): > 100 µM (inactive) | GI50 (EKVX): > 100 µM (inactive) | GI50 (NCI-H23): > 100 µM (inactive) | GI50 (HOP-92): > 100 µM (inactive) | GI50 (OVCAR-8): > 100 µM (inactive) | GI50 (RXF 393): > 100 µM (inactive) | GI50 (UO-31): > 100 µM (inactive) | GI50 (M19-MEL): > 100 µM (inactive) | GI50 (SNB-75): > 100 µM (inactive) | GI50 (CCRF-CEM): > 100 µM (inactive) | GI50 (COLO 205): > 100 µM (inactive) | GI50 (CAKI-1): > 100 µM (inactive) | GI50 (KM12): > 100 µM (inactive) | GI50 (DLD-1): > 100 µM (inactive) | GI50 (HL-60): > 100 µM (inactive) | GI50 (ACHN): > 100 µM (inactive) | GI50 (SF-539): > 100 µM (inactive) | GI50 (U-251): > 100 µM (inactive) | GI50 (NCI-H226): > 100 µM (inactive)
